Values of other authors, collected in patent US20060257502A1, “A COMBINATION OF MITOCHONDRIAL NUTRIENTS FOR RELIEVING STRESS, PREVENTING AND IMPROVING STRESS-RELATED DISORDERS” (priority 2005, published 2006).

Tested on: rats

Oc1ccc(/C=C/c2cc(O)cc(O)c2)cc1 [Resveratrol, trans-3,5,4′-trihydroxystilbene]
No observed adverse effect level: 300 mg per kilogram body weight per day
